Data: ChEMBL document CHEMBL3352178, “Antidepressant- and anxiolytic-like activity of 7-phenylpiperazinylalkyl-1,3-dimethyl-purine-2,6-dione derivatives with diversified 5-HT₁A receptor functional profile” (Bioorg Med Chem, 2015)
Calls of active or inactive are those of the source. The calls are words filed in the database; no cut-off is given here.

Columns and labels:
Mus musculus [1] = experiment: Anxiolytic-like activity in mouse assessed as increase in number of punished crossings at 2.5 mg/kg, ip dosed 60 mins before test by four plate test; assay type: functional; settings: route intraperitoneal
Mus musculus [2] = experiment: Effect on spontaneous locomotor activity in mouse at 2.5 mg/kg, ip; assay type: ADME, organism-based; parameters: dose 2.5 mg/kg, route intraperitoneal; settings: in vivo
Mus musculus [3] = experiment: Anxiolytic-like activity in mouse assessed as increase in number of punished crossings at 2.5 mg/kg, ip dosed 60 mins before test in presence of 0.3 mg/kg, sc 5HT1A receptor antagonist WAY 100635 by four plate test; assay type: functional, organism-based
Mus musculus [4] = experiment: Antidepressant-like activity in mouse assessed as reduction in immobility time at 1.25 to 10 mg/kg, ip dosed 60 mins before test by forced swim test; assay type: functional, organism-based
[5] = biological target: T1, 5-hydroxytryptamine receptor 1A (Rattus norvegicus, UniProt P19327); experiment: Displacement of [3H]-8-OH-DPAT from 5-HT1AR in rat hippocampus; assay type: tissue-based
T1 sequence (P19327 whole entry): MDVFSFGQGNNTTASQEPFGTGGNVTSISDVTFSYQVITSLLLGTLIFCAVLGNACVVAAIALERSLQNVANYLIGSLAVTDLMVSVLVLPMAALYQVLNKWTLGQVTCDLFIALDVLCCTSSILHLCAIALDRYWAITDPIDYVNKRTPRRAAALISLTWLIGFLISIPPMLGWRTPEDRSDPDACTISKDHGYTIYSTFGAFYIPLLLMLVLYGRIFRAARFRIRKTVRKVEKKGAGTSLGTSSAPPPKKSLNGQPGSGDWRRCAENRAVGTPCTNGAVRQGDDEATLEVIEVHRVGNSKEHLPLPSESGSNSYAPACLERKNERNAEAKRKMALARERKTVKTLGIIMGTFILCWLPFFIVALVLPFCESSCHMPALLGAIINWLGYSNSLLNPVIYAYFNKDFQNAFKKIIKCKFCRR

[6] = biological target: 5-hydroxytryptamine receptor 2A (Rattus norvegicus, UniProt P14842); experiment: Displacement of [3H]-ketanserin from 5-HT2AR in rat cortex
[7] = biological target: 5-hydroxytryptamine receptor 6 (Homo sapiens, UniProt P50406); experiment: Displacement of [3H]LSD from human cloned 5-HT6R expressed in HEK293 cells; assay type: cell-based
[8] = biological target: 5-hydroxytryptamine receptor 7 (Homo sapiens, UniProt P34969); experiment: Displacement of [3H]]-5-CT from human cloned 5-HT7R expressed in HEK293 cells; assay type: cell-based
D(2) dopamine receptor = D(2) dopamine receptor (Rattus norvegicus, UniProt P61169); experiment: Displacement of [3H]-spiperone from dopamine D2 receptor in rat striatum
Mus musculus [9] = experiment: Induction of hypothermia in mouse assessed as change in body temperature at 5 mg/kg, ip administered 30 mins before test and measured 30 mins post dose; assay type: functional, organism-based; parameters: dose 5 mg/kg
Mus musculus [10] = experiment: Induction of hypothermia in mouse assessed as change in body temperature at 10 mg/kg, ip administered 30 mins before test and measured 30 mins post dose; assay type: functional, organism-based; parameters: dose 10 mg/kg
Mus musculus [11] = experiment: Induction of hypothermia in mouse assessed as change in body temperature at 5 mg/kg, ip administered 30 mins before test and measured 60 mins post dose; assay type: functional, organism-based; parameters: dose 5 mg/kg
Mus musculus [12] = experiment: Induction of hypothermia in mouse assessed as change in body temperature at 10 mg/kg, ip administered 30 mins before test and measured 60 mins post dose; assay type: functional, organism-based; parameters: dose 10 mg/kg
Mus musculus [13] = experiment: Induction of hypothermia in mouse assessed as change in body temperature at 5 mg/kg, ip administered 30 mins before test and measured 90 mins post dose; assay type: functional, organism-based; parameters: dose 5 mg/kg
Mus musculus [14] = experiment: Induction of hypothermia in mouse assessed as change in body temperature at 10 mg/kg, ip administered 30 mins before test and measured 90 mins post dose; assay type: functional, organism-based; parameters: dose 10 mg/kg
Mus musculus [15] = experiment: Induction of hypothermia in mouse assessed as change in body temperature at 5 mg/kg, ip administered 30 mins before test and measured 120 mins post dose; assay type: functional, organism-based; parameters: dose 5 mg/kg
Mus musculus [16] = experiment: Induction of hypothermia in mouse assessed as change in body temperature at 10 mg/kg, ip administered 30 mins before test and measured 120 mins post dose; assay type: functional, organism-based; parameters: dose 10 mg/kg
Mus musculus [17] = experiment: Induction of hypothermia in mouse assessed as change in body temperature at 10 mg/kg, ip administered 30 mins before test and measured 30 mins post dose in presence of 0.3 mg/kg, sc 5HT1A receptor antagonist WAY 100635; assay type: functional, organism-based
Mus musculus [18] = experiment: Induction of hypothermia in mouse assessed as change in body temperature at 10 mg/kg, ip administered 30 mins before test and measured 60 mins post dose in presence of 0.3 mg/kg, sc 5HT1A receptor antagonist WAY 100635; assay type: functional, organism-based
Rattus norvegicus [19] = experiment: Induction of lower lip retraction in rat assessed as lower lip retraction scores at 5 mg/kg, ip dosed 15 mins before test; assay type: functional; settings: route intraperitoneal
Rattus norvegicus [20] = experiment: Induction of lower lip retraction in rat assessed as lower lip retraction scores at 10 mg/kg, ip dosed 15 mins before test; assay type: functional; settings: route intraperitoneal
Rattus norvegicus [21] = experiment: Inhibition of 8-OH-DPAT-induced lower lip retraction in rat assessed as lower lip retraction scores at 5 mg/kg, ip dosed 45 mins before 8-OH-DPAT; assay type: functional; settings: route intraperitoneal
Rattus norvegicus [22] = experiment: Induction of lower lip retraction in rat assessed as lower lip retraction scores at 10 mg/kg, ip dosed 45 mins after 0.3 mg/kg, sc 5HT1A receptor antagonist WAY 100635; assay type: functional

Sequence of 5-hydroxytryptamine receptor 6 (P50406 whole entry): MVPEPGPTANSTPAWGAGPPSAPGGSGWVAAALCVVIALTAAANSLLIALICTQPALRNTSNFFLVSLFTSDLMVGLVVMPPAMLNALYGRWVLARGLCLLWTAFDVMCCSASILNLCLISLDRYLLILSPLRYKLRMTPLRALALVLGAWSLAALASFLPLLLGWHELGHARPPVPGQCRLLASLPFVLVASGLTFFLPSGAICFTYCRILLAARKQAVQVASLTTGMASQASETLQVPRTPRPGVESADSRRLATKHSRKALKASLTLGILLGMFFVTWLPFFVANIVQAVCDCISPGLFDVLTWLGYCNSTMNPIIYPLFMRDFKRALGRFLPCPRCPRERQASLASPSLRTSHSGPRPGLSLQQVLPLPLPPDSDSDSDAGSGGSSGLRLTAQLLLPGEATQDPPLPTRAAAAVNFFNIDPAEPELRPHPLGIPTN
Sequence of 5-hydroxytryptamine receptor 7 (P34969 whole entry): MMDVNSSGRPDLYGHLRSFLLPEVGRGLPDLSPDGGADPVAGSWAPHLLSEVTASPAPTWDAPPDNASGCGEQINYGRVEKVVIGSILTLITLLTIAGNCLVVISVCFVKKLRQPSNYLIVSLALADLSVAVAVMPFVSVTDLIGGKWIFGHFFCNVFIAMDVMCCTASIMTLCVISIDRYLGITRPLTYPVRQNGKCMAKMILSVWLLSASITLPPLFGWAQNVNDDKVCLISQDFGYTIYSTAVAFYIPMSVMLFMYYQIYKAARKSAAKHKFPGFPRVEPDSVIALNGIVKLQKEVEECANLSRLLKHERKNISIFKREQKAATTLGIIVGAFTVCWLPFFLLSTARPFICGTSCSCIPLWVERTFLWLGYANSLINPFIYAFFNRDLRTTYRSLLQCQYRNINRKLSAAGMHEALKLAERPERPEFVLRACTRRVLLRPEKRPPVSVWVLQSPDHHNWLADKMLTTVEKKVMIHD
Sequence of 5-hydroxytryptamine receptor 2A (P14842 whole entry): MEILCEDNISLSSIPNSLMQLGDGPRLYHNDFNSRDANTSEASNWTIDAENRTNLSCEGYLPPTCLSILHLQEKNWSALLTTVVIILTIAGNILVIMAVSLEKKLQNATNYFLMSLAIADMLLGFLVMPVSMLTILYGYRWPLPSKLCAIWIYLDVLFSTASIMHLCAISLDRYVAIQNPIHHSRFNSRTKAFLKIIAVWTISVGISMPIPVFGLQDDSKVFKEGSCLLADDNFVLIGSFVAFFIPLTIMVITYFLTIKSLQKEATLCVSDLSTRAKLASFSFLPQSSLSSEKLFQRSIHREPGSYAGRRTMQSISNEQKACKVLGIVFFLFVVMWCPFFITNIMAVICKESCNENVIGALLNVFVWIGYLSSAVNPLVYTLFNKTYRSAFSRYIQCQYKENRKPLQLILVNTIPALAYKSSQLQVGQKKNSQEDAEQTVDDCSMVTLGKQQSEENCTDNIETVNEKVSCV
Sequence of D(2) dopamine receptor (P61169 whole entry): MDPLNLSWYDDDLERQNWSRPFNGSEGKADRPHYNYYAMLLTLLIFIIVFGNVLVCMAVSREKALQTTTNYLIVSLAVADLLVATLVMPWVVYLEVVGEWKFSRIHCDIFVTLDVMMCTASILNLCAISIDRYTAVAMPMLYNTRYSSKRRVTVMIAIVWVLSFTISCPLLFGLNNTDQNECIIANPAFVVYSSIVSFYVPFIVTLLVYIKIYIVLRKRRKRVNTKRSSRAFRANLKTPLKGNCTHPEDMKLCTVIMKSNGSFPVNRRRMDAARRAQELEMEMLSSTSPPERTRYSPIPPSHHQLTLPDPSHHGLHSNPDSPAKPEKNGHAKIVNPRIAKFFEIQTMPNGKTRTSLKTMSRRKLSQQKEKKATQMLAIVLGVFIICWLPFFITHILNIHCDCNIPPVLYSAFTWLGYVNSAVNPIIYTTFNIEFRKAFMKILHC

For `Cl.Cn1c(=O)c2c(ncn2CCCCCN2CCN(c3ccccc3)CC2)n(C)c1=O`, the Activity (Mus musculus [1]) was 50%, the Activity (Mus musculus [2]) was “Non-toxic” and the Activity (Mus musculus [3]) was “inactive”. The Activity (Mus musculus [4]) was “inactive”, the Ki [5] was 11 nM and the Ki [6] was 308 nM. It also gave a Ki [7] of 10.3 µM, a Ki [8] of 346 nM and a Ki (D(2) dopamine receptor) of 356 nM. For the same compound, the deltaT (Mus musculus [9]) was -1.4 °C, the deltaT (Mus musculus [10]) was -0.9 °C and the deltaT (Mus musculus [11]) was 1.1 °C. For the same compound, the deltaT (Mus musculus [12]) was -1.5 °C, the deltaT (Mus musculus [13]) was -0.1 °C and the deltaT (Mus musculus [14]) was -1.4 °C. It also gave a deltaT (Mus musculus [15]) of 0.4 °C, a deltaT (Mus musculus [16]) of -1.3 °C and a deltaT (Mus musculus [17]) of -0.2 °C. The deltaT (Mus musculus [18]) was -0.9 °C, the Activity (Rattus norvegicus [19]) was 0.4 and the Activity (Rattus norvegicus [20]) was 2. The Activity (Rattus norvegicus [21]) was 1.7 and the Activity (Rattus norvegicus [22]) was 0.2.
Compound `Cn1c(=O)c2c(ncn2CCCCN2CCc3ccccc3C2)n(C)c1=O` has a Ki [5] of 239 nM, a Ki [6] of 22000 nM and a Ki [7] of 11.7 µM. For the same compound, the Ki [8] was 629 nM and the Ki (D(2) dopamine receptor) was 7820 nM.
`COc1ccccc1N1CCN(CCCCn2cnc3c2c(=O)n(C)c(=O)n3C)CC1` was tested, and the Ki [5] was 1.2 nM, the Ki [6] was 1050 nM and the Ki [7] was 1.97 µM. It also gave a Ki [8] of 434 nM and a Ki (D(2) dopamine receptor) of 65 nM.
`Cn1c(=O)c2c(ncn2CCCN2CCN(c3cccc(Cl)c3)CC2)n(C)c1=O` showed a Ki [5] of 182 nM, a Ki [6] of 53 nM and a Ki [7] of 20.3 µM. It also gave a Ki [8] of 2800 nM and a Ki (D(2) dopamine receptor) of 3190 nM.
